Consider 23 compounds from patent US20250034197A1, “NUCLEOSIDE-DIPHOSPHATE-HEPTOSE COMPOUNDS FOR TREATING CONDITIONS ASSOCIATED WITH ALPK1 ACTIVITY” (PYROTECH (BEIJING) BIOTECHNOLOGY CO., LTD., priority 2021, published 2025).

Read-outs that look alike come from different tables or passages of the source. A value given as a limit tells only on which side of the number the result lay.

Series [1] has as its target T1, ALPK1 (Homo sapiens, UniProt Q96QP1).
T1 construct: endogenous in cells; host or cells: 293T cells
As to the kind of experiment: Enzymatic assay of ALPK1 activation. It is filed as biochemical.

In series [2] the target is T1, ALPK1. Briefly: NF-κB luciferase reporter assay in 293T cells (cellular assay). It is filed as cell-based. The method, then: The compounds disclosed herein activate NF-κB through ALPK1-TIFA axis as determined by the NF-κB luciferase reporter and TIFA phosphorylation. For NF-κB luciferase assay, the plasmids (pNL2.2-BII-5RE-Luc), and control vector (pRL-TK) were transfected into 293T cells with the Jetprime reagents (Polyplus). NF-κB luciferase activity was determined using the dual luciferase assay kit (Promega) according to the manufacturer's instructions. TIFA phosphorylation upon the treatment with the compounds disclosed herein described in Table 1, were assayed with immunoblotting. Briefly, for the immunoblotting assay, the 293T cells were seeded in 12-well-plates and cultured for 16 h, and treated with indicated compounds for another 2 hours. Subsequently, the cells were collected and sampled as the regular western-blotting method, immunoblotted by the TIFA phosphorylation specific antibody (ab214815, Abcam).
The EC50 of the compounds disclosed herein were determined by the NF-κB luciferase reporter assay using 293T cells described supra. Compounds with indicated concentrations were added to the culture medium of 293T and the NF-κB luciferase activity was determined using the dual luciferase assay kit (Promega) according to the manufacturer's instructions. […] These chemical entities induce strong activation of the immune regulator NF-κB.
A general note: Reporter assays use an easily measured gene product as a stand-in for the process of interest.

A short description of series [3]: PK / tissue distribution in Sprague-Dawley rats. The series is classed as in vivo. The following applies: female, rat; for Cmax: PO, 5 mg/kg; for clearance: IV 1 mg/kg, read-out: CL post IV Dosing @1 mg/kg; for half-life: PO 5 mg/kg, read-out: T1/2 post PO Dosing @5 mg/kg (converted). The method, then: Tissue distribution study of the compounds disclosed herein were conducted in SD rats and mice to assess their liver-targeting properties. The compounds disclosed herein were orally administered to SD rats and mice, and the concentration of the compound and its metabolites were tested in plasma and liver at different time points.
The pharmacokinetics of the compounds disclosed herein were evaluated in female Sprague-Dawley rats after administration via oral gavage and intravenous bolus (IV) injection. The test compound was dissolved in 0.5% methylcellulose for oral gavage and in 30% HP-β-CD for IV injection. The animals used for oral administration were fasted overnight prior to dosing and fed normal daily feed at 4 hours post-dose, but the animals used for IV dosing had free access to food during the study. Plasma samples were collected at pre-dose, 0.033 (IV only), 0.083, 0.25, 0.5, 1, 2, 4, 7 and 24 hours post-dose. Liver samples were collected at 1, 3 and 6 hours post-dose. The samples were analyzed by LC/MS/MS and the concentrations of test compound and its metabolites at each time point were determined. Pharmacokinetic parameters were calculated from the plasma concentrations using Pheonix WinNonlin.
Particularly, preferable compounds have a ratio for liver concentration to plasma concentration of greater than 2, more preferable compounds have a ratio for liver concentration to plasma concentration of greater than 5, and most preferable compounds have a ratio for liver concentration to plasma concentration of greater than 10. The PK properties and tissue exposure of representative compounds and control compound ADPS-Heptose in Rats are given below.

Where [4] appears, read: plasma, read-out: Cmax in Plasma.

T1 sequence (Q96QP1 whole entry): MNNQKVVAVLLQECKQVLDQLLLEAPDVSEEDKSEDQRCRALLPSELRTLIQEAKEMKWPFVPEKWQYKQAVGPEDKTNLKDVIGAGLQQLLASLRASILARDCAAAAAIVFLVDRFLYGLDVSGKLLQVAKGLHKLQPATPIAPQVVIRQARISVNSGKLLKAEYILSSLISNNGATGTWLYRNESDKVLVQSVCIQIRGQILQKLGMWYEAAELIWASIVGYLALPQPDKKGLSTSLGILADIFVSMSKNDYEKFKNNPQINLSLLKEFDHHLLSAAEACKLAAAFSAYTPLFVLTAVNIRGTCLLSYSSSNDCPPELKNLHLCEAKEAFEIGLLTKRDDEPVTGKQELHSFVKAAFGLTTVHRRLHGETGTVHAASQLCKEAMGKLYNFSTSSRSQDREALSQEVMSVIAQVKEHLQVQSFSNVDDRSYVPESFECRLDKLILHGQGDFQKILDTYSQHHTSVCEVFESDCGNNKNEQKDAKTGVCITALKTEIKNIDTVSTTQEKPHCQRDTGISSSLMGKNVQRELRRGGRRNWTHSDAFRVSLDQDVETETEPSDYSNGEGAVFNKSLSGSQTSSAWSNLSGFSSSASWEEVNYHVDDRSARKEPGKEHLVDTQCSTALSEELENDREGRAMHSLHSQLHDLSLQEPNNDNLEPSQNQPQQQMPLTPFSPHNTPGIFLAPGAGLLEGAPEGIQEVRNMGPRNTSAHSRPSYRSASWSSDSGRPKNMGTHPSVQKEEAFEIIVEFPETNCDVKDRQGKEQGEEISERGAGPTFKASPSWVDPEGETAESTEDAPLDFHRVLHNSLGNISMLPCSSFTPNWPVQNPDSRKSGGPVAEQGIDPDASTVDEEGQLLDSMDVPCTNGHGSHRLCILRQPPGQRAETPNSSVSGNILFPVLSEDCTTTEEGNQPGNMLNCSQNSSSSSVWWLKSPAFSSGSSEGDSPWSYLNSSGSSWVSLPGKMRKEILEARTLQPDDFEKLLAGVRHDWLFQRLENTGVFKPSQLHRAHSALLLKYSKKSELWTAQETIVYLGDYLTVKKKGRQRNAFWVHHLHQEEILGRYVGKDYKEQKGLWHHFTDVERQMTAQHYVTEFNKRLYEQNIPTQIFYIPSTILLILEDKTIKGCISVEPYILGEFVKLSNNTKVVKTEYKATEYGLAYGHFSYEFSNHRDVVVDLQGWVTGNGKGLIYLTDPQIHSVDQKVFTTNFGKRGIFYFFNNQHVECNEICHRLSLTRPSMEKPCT

Take `C=C[C@@]1(O)[C@H](O)[C@@H](CO[P@](=O)(S)OP(=O)(O)OC2OC([C@@H](O)CO)C(O)C(O)C2O)O[C@H]1n1cnc2c(N)ncnc21` (single isomer, unassigned) [Example 31Q]: the EC50 (in general, the concentration that produces a half-maximal response) at ALPK1 [1] is 0.011 µM; at ALPK1 [2], 0.00701 µM.

For `C=C[C@@]1(O)[C@H](O)[C@@H](CO[P@@](=O)(S)OP(=O)(O)OC2OC([C@@H](O)CO)C(O)C(O)C2O)O[C@H]1n1cnc2c(N)ncnc21` (single isomer, unassigned) [Example 31R], the EC50 worked out at 0.012 µM on ALPK1 [1] and 0.0136 µM at ALPK1 [2].

As for `C=C[C@@]1(F)[C@H](O)[C@@H](COP(=O)(S)OP(=O)(O)OC2OC([C@@H](O)CO)C(O)C(O)C2O)O[C@H]1n1cnc2c(N)ncnc21` (single isomer, unassigned) [Example 41D], the EC50 at ALPK1 [1] is 0.0041 µM; at ALPK1 [2] it was 0.00571 µM.

On to `C#C[C@@]1(F)[C@H](O)[C@@H](COP(=O)(S)OP(=O)(O)OC2OC([C@@H](O)CO)C(O)C(O)C2O)O[C@H]1n1cnc2c(N)ncnc21` (some centres unmarked) [Example 21D], for which the EC50 at ALPK1 [1] was found to be 0.026 µM; on ALPK1 [2], 0.00408 µM.

On to `C#C[C@@]1(F)[C@H](O)[C@@H](COP(=O)(S)OP(=O)(O)OC2OC([C@@H](O)CO)C(O)C(O)C2O)O[C@H]1n1ccc(=O)[nH]c1=O` (some centres unmarked) [Example 22D], for which the EC50 on ALPK1 [1] came out at 0.064 µM; on ALPK1 [2], 0.00566 µM.

Turning to `C#C[C@@]1(O)[C@H](O)[C@@H](COP(=O)(S)OP(=O)(O)OC2OC([C@@H](O)CO)C(O)C(O)C2O)O[C@H]1n1cnc2c(N)ncnc21` (some centres unmarked) [Example 25D], the EC50 was 0.017 µM at ALPK1 [1] and 0.00841 µM on ALPK1 [2].

In the case of `C=C[C@@]1(O)[C@H](O)[C@@H](COP(=O)(S)OP(=O)(O)OC2OC([C@H](COC(C)=O)OC(C)=O)C(OC(C)=O)C(OC(C)=O)C2OC(C)=O)O[C@H]1n1cnc2c(N)ncnc21` (some centres unmarked) [Example 31C], the Cmax (as a rule, the highest concentration seen after dosing) in series [3] (liver, read-out: Cmax in Liver) is 30.5 ng/g; in series [3] (setting [4]) it was under 1 ng/mL. The clearance in series [3] (plasma) is 14.6 mL/min/kg. For the same compound, the half-life in series [3] (plasma) is 104 min. Also, the midpoint of the response on ALPK1 [2], the EC50, lay at 0.0169 µM.

On to `C=C[C@@]1(O)[C@H](O)[C@@H](COP(=O)(S)OP(=O)(O)OC2OC([C@@H](O)CO)C(O)C(O)C2O)O[C@H]1n1cnc2c(N)ncnc21` (some centres unmarked) [Example 31D], for which the EC50 at ALPK1 [1] came to 0.024 µM; on ALPK1 [2] it was 0.016 µM.

On to `CC(=O)OC[C@H](OC(C)=O)C1OC(OP(=O)(O)OP(=O)(S)OC[C@H]2O[C@@H](n3cnc4c(N)ncnc43)[C@H](N(C)C)[C@@H]2O)C(OC(C)=O)C(OC(C)=O)C1OC(C)=O` (some centres unmarked) [Example 35C], for which the Cmax in series [3] (liver, read-out: Cmax in Liver) was found to be 1330 ng/g; in series [3] (setting [4]), 75.5 ng/mL. Further, the clearance in series [3] (plasma) is 7.67 mL/min/kg. In series [3] (plasma), the half-life is 27 min. This compound also gave an EC50 at ALPK1 [2] of 0.0189 µM.

Regarding `C=C[C@@]1(F)[C@H](O)[C@@H](COP(=O)(S)OP(=O)(O)OC2OC([C@H](COC(C)=O)OC(C)=O)C(OC(C)=O)C(OC(C)=O)C2OC(C)=O)O[C@H]1n1cnc2c(N)ncnc21` (some centres unmarked) [Example 41C], the Cmax in series [3] (liver, read-out: Cmax in Liver) was 18.7 ng/g. The Cmax in series [3] (setting [4]) is under 1 ng/mL. In series [3] (plasma), the clearance stood at 9.76 mL/min/kg and the half-life is 51 min. In addition, the EC50 on ALPK1 [2] stood at 0.00831 µM.

As to `C=C[C@@]1(F)[C@H](O)[C@@H](COP(=O)(S)OP(=O)(O)OC2OC([C@H](COC(C)=O)OC(C)=O)C(OC(C)=O)C(OC(C)=O)C2OC(C)=O)O[C@H]1n1ccc(=O)[nH]c1=O` (some centres unmarked) [Example 42C], the Cmax in series [3] (liver, read-out: Cmax in Liver) stood at 31.7 ng/g. Also, in series [3] (setting [4]), the Cmax was determined as 2.4 ng/mL. Further, in series [3] (plasma), the clearance was 18.6 mL/min/kg and the half-life was 37.8 min. The compound also had an EC50 on ALPK1 [2] of 0.00757 µM.

Consider `C=C[C@@]1(F)[C@H](O)[C@@H](COP(=O)(S)OP(=O)(O)OC2OC([C@@H](O)CO)C(O)C(O)C2O)O[C@H]1n1ccc(=O)[nH]c1=O` (some centres unmarked) [Example 42D], for which the EC50 on ALPK1 [1] was 0.011 µM; at ALPK1 [2], 0.014 µM.

Take `C=C[C@@]1(O)[C@H](O)[C@@H](COP(=O)(S)OP(=O)(O)OC2OC([C@H](COC(C)=O)OC(C)=O)C(OC(C)=O)C(OC(C)=O)C2OC(C)=O)O[C@H]1n1ccc(=O)[nH]c1=O` (some centres unmarked) [Example 43C]: the Cmax in series [3] (liver, read-out: Cmax in Liver) was 22.4 ng/g; in series [3] (setting [4]), under 1 ng/mL. Besides, the clearance in series [3] (plasma) was found to be 8.25 mL/min/kg. Also, the half-life in series [3] (plasma) is 140 min. This compound registered an EC50 on ALPK1 [2] of 0.0207 µM.

On to `C=C[C@@]1(O)[C@H](O)[C@@H](COP(=O)(S)OP(=O)(O)OC2OC([C@@H](O)CO)C(O)C(O)C2O)O[C@H]1n1ccc(=O)[nH]c1=O` (some centres unmarked) [Example 43D], for which the 50% effective concentration (EC50) at ALPK1 [1] came out at 0.048 µM; on ALPK1 [2], 0.0183 µM.

With `C=C[C@@]1(O)[C@H](O)[C@@H](COP(=O)(S)OP(=O)(O)OC2OC([C@H](COC(C)=O)OC(C)=O)C(OC(C)=O)C(OC(C)=O)C2OC(C)=O)O[C@H]1c1csc(C(N)=O)c1N` (some centres unmarked) [Example 126C], at ALPK1 [2], the EC50 stood at 0.231 µM.

For `C=C[C@@]1(O)[C@H](O)[C@@H](COP(=O)(S)OP(=O)(O)OC2OC([C@H](COC(C)=O)OC(C)=O)C(OC(C)=O)C(OC(C)=O)C2OC(C)=O)O[C@H]1c1cnc2c(N)ncnn12` (some centres unmarked) [Example 127C], the Cmax in series [3] (liver, read-out: Cmax in Liver) was 48.5 ng/g; in series [3] (setting [4]), 0.4 ng/mL. Also, the clearance in series [3] (plasma) was 17.6 mL/min/kg. For the same compound, the half-life in series [3] (plasma) was 38.4 min. In addition, it took 0.00294 µM to reach a half-maximal effect on ALPK1 [2] (EC50).

For the compound `C=C[C@@]1(O)[C@H](O)[C@@H](COP(=O)(S)OP(=O)(O)OC2OC([C@H](COC(C)=O)OC(C)=O)C(OC(C)=O)C(OC(C)=O)C2OC(C)=O)O[C@H]1c1cnn2c(N)ncnc12` (some centres unmarked) [Example 128C], a half-maximal response on ALPK1 [2] (EC50) required 0.00362 µM.

`CS[C@@H]1[C@H](O)[C@@H](COP(=O)(S)OP(=O)(O)OC2OC([C@H](COC(C)=O)OC(C)=O)C(OC(C)=O)C(OC(C)=O)C2OC(C)=O)O[C@H]1n1ccc(=O)[nH]c1=O` (some centres unmarked) [Example 262C] displayed an EC50 on ALPK1 [2] of 0.0363 µM.

For `CS[C@@H]1[C@H](O)[C@@H](COP(=O)(S)OP(=O)(O)OC2OC([C@@H](O)CO)C(O)C(O)C2O)O[C@H]1n1ccc(=O)[nH]c1=O` (some centres unmarked) [Example 262D], the midpoint of the response on ALPK1 [2], the EC50, lay at 0.101 µM.

In turn, `C#C[C@@]1(O)[C@H](O)[C@@H](COP(=O)(S)OP(=O)(O)OC2OC([C@H](COC(C)=O)OC(C)=O)C(OC(C)=O)C(OC(C)=O)C2OC(C)=O)O[C@H]1c1csc2c(N)ncnc12` (some centres unmarked) [Example 264C] registered an EC50 at ALPK1 [2] of 0.0483 µM.

With `C=C[C@@]1(O)[C@H](O)[C@@H](COP(=O)(S)OP(=O)(O)OC2OC([C@H](COC(C)=O)OC(C)=O)C(OC(C)=O)C(OC(C)=O)C2OC(C)=O)O[C@H]1c1csc2c(N)ncnc12` (some centres unmarked) [Example 265C], the EC50 on ALPK1 [2] worked out at 0.0454 µM. The EC50 values of the last two compounds are within 1.5-fold of each other.

On ALPK1 [2], `C=C[C@@]1(O)[C@H](O)[C@@H](COP(=O)(S)OP(=O)(O)OC2OC([C@@H](OC(C)=O)C(COC(C)=O)OC(C)=O)C(OC(C)=O)C(OC(C)=O)C2OC(C)=O)O[C@H]1n1cnc2c(N)ncnc21` (some centres unmarked) [Example 321C] displayed an EC50 of over 1 µM.

`CO[C@@H]1[C@H](O)[C@@H](COP(=O)(S)OP(=O)(O)OC2OC([C@H](COC(C)=O)OC(C)=O)C(OC(C)=O)C(OC(C)=O)C2OC(C)=O)O[C@H]1c1cnc2c(N)ncnn12` (some centres unmarked) [Example 322C]: the EC50 at ALPK1 [2] stood at 0.00676 µM. This counts as single-digit nanomolar.
